According to US9593109B2, “Bicyclic agonists of GPR131 and uses thereof” (CYMABAY THERAPEUTICS, INC., priority 2011, dated 2017):

molecular target: T1, human GPR131 (Homo sapiens, UniProt Q8TDU6); assay: Stimulation of cAMP (agonism of GPR131), FRET cAMP assay; format: cell-based; conditions: 0.5 h; 1.1 μM compound; compared to maximal stimulatory activity of lithocholic acid (LCA) determined at 3.3 μM; stable cell line expressing human GPR131; 37° C. for 30 minutes; read-out: Percent Activity @ 1.1 μM (of 3.3 uM LCA) (%)
T1 construct: expressed in transfected cells
T1 sequence (Q8TDU6 1-330): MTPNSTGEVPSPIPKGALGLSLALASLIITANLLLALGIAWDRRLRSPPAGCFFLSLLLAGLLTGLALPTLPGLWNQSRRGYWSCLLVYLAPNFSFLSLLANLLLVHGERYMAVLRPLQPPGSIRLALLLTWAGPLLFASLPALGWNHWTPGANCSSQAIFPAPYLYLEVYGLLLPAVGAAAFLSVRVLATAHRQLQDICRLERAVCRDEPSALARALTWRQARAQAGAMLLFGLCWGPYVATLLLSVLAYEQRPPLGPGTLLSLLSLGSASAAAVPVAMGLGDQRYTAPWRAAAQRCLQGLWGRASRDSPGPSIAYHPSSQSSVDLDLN
Procedure: This assay was developed using a stable cell line expressing human GPR131.
To measure cAMP activity in response to GPR131 agonists, GPR131 cells suspended in DMEM/F12 medium with 1 mM IBMX were seeded in 384 well plates at 5000 cells per well. After incubating with test compounds at 37° C. for 30 minutes cAMP was measured using a fluorescene resonance energy transfer cAMP kit from Cis Bio (Bedford, Mass.) according to the manufacturer's instructions. Briefly, cells were lysed, and cAMP levels determined by competitive immunoassay using D2 labeled cAMP, and europium cryptate tagged anti cAMP antibody. Decreases in the FRET signal (fluorescence ratio (665 nm/620 […]) correspond to increases in intracellular cAMP levels.
Activities of test compounds in Table 1 below are expressed as percent activity at 1.1 μM compound compared to the maximal stimulatory activity of lithocholic acid (LCA) (determined at 3.3 μM LCA).

Structure (SMILES) | activation at 1.1 µM
Clc1ccc(-n2nnnc2-c2c(-c3ccccc3Cl)nc3ccccn23)cc1 [Compound 500, 2-(2-Chlorophenyl)-3-(1-(4-chlorophenyl)-1H-tetrazol-5-yl)imidazo[1,2-a]pyridine] | 97.4%
Clc1ccc(-n2ncnc2-c2c(-c3ccccc3Cl)nc3ccccn23)cc1 [Compound 503, 2-(2-Chlorophenyl)-3-(1-(4-chlorophenyl)-1H-1,2,4-triazol-5-yl)imidazo[1,2-a]pyridine] | 97.4%
Cc1nc(-c2c(-c3cc(Cl)ccc3Cl)nc3ccccn23)n(-c2ccc(Cl)cc2)n1 [Compound 504, 3-(1-(4-Chlorophenyl)-3-methyl-1H-1,2,4-triazol-5-yl)-2-(2,5-dichlorophenyl)imidazo[1,2-a]pyridine] | 97.4%
Cc1nnc(-c2c(-c3cc(Cl)ccc3Cl)nc3ccccn23)n1-c1ccc(Cl)cc1 [Compound 505, 3-(4-(4-Chlorophenyl)-5-methyl-4H-1,2,4-triazol-3-yl)-2-(2,5-dichlorophenyl)imidazo[1,2-a]pyridine] | 99.1%
Clc1ccc(-n2ccnc2-c2c(-c3cc(Cl)ccc3Cl)nc3ccccn23)cc1 [Compound 506, 3-(1-(4-Chlorophenyl)-1H-imidazol-2-yl)-2-(2,5-dichlorophenyl)imidazo[1,2-a]pyridine] | 99.4%
Clc1ccc(-n2cncc2-c2c(-c3cc(Cl)ccc3Cl)nc3ccccn23)cc1 [Compound 507, 3-(1-(4-Chlorophenyl)-1H-imidazol-5-yl)-2-(2,5-dichlorophenyl)imidazo[1,2-a]pyridine] | 100%
Clc1ccc(Cl)c(-c2nc3ccccn3c2-c2nncn2-c2ccc3[nH]ncc3c2)c1 [Compound 514, 5-(3-(2-(2,5-Dichlorophenyl)imidazo[1,2-a]pyridin-3-yl)-4H-1,2,4-triazol-4-yl)-1H-indazole] | 93.3%
N#Cc1ccc(-n2cnnc2-c2c(-c3cc(Cl)ccc3Cl)nc3ccccn23)cc1 [Compound 515, 4-(3-(2-(2,5-Dichlorophenyl)imidazo[1,2-a]pyridin-3-yl)-4H-1,2,4-triazol-4-yl)benzonitrile] | 100%
Cn1ncc2ccc(-n3cnnc3-c3c(-c4cc(Cl)ccc4Cl)nc4ccccn34)cc21 [Compound 520, 6-(3-(2-(2,5-Dichlorophenyl)imidazo[1,2-a]pyridin-3-yl)-4H-1,2,4-triazol-4-yl)-1-methyl-1H-indazole] | 95.7%
Cn1cnc2cc(-n3cnnc3-c3c(-c4cc(Cl)ccc4Cl)nc4ccccn34)ccc21 [Compound 521, 5-(3-(2-(2,5-Dichlorophenyl)imidazo[1,2-a]pyridin-3-yl)-4H-1,2,4-triazol-4-yl)-1-methyl-1H-benzo[d]imidazole] | 81.6%
Clc1ccccc1-c1nc2ccccn2c1-c1nncn1-c1ccc2cn[nH]c2c1 [Compound 522, 6-(3-(2-(2-Chlorophenyl)imidazo[1,2-a]pyridin-3-yl)-4H-1,2,4-triazol-4-yl)-1H-indazole] | 91.4%
Clc1ccc(Cl)c(-c2nc3cccnn3c2-c2nncn2-c2ccc3cn[nH]c3c2)c1 [Compound 523, 3-(4-(1H-Indazol-6-yl)-4H-1,2,4-triazol-3-yl)-2-(2,5-dichlorophenyl)imidazo[1,2-b]pyridazine] | 95.2%
Fc1ccc(-c2nn3ccccc3c2-c2nncn2-c2ccc(Cl)cc2)cc1 [Compound 524, 3-(4-(4-Chlorophenyl)-4H-1,2,4-triazol-3-yl)-2-(4-fluorophenyl)pyrazolo[1,5-a]pyridine] | 99.1%
CC(C)c1ccc(-n2cnnc2-c2c(-c3cc(Cl)ccc3Cl)nc3ccccn23)cc1 [Compound 530, 2-(2,5-Dichlorophenyl)-3-(4-(4-isopropylphenyl)-4H-1,2,4-triazol-3-yl)imidazo[1,2-a]pyridine] | 98.9%
Fc1ccc(-n2cnnc2-c2c(-c3cc(Cl)ccc3Cl)nc3ccccn23)cc1 [Compound 533, 2-(2,5-Dichlorophenyl)-3-(4-(4-fluorophenyl)-4H-1,2,4-triazol-3-yl)imidazo[1,2-a]pyridine] | 100%
Fc1cccc(-n2cnnc2-c2c(-c3cc(Cl)ccc3Cl)nc3ccccn23)c1 [Compound 535, 2-(2,5-Dichlorophenyl)-3-(4-(3-fluorophenyl)-4H-1,2,4-triazol-3-yl)imidazo[1,2-a]pyridine] | 99.6%
Cc1ccc(-n2cnnc2-c2c(-c3cc(Cl)ccc3Cl)nc3ccccn23)cn1 [Compound 540, 2-(2,5-Dichlorophenyl)-3-(4-(6-methylpyridin-3-yl)-4H-1,2,4-triazol-3-yl)imidazo[1,2-a]pyridine] | 96%

Results, then the molecule that gave them:

activation at 1.1 µM | Structure (SMILES)
99.4% | Clc1ccc(-n2cnnc2-c2c(-c3ccccc3Cl)nc3ccccn23)cc1 [Compound 501, 2-(2-Chlorophenyl)-3-(4-(4-chlorophenyl)-4H-1,2,4-triazol-3-yl)imidazo[1,2-a]pyridine]
100% | CN(C)c1ccc(-n2cnnc2-c2c(-c3cc(Cl)ccc3Cl)nc3ccccn23)cc1 [Compound 510, 4-(3-(2-(2,5-Dichlorophenyl)imidazo[1,2-a]pyridin-3-yl)-4H-1,2,4-triazol-4-yl)-N,N-dimethylaniline]
100% | FC(F)(F)c1ccc(-n2cnnc2-c2c(-c3cc(Cl)ccc3Cl)nc3ccccn23)cc1 [Compound 513, 2-(2,5-Dichlorophenyl)-3-(4-(4-(trifluoromethyl)phenyl)-4H-1,2,4-triazol-3-yl)imidazo[1,2-a]pyridine]
99.8% | Clc1ccc(Cl)c(-c2nc3ccccn3c2-c2nncn2-c2ccc3cn[nH]c3c2)c1 [Compound 516, 6-(3-(2-(2,5-Dichlorophenyl)imidazo[1,2-a]pyridin-3-yl)-4H-1,2,4-triazol-4-yl)-1H-indazole]
98.4% | Clc1ccc(Cl)c(-c2nc3ccccn3c2-c2nncn2-c2ccc3scnc3c2)c1 [Compound 518, 5-(3-(2-(2,5-Dichlorophenyl)imidazo[1,2-a]pyridin-3-yl)-4H-1,2,4-triazol-4-yl)benzo[d]thiazole]
99.9% | Cn1ncc2cc(-n3cnnc3-c3c(-c4cc(Cl)ccc4Cl)nc4ccccn34)ccc21 [Compound 519, 5-(3-(2-(2,5-Dichlorophenyl)imidazo[1,2-a]pyridin-3-yl)-4H-1,2,4-triazol-4-yl)-1-methyl-1H-indazole]
83.3% | O=c1[nH]nc(-c2c(-c3cc(Cl)ccc3Cl)nc3ccccn23)n1-c1ccc(Cl)cc1 [Compound 525, 4-(4-Chlorophenyl)-3-(2-(2,5-dichlorophenyl)imidazo[1,2-a]pyridin-3-yl)-1H-1,2,4-triazol-5(4H)-one]
98.9% | S=c1[nH]nc(-c2c(-c3cc(Cl)ccc3Cl)nc3ccccn23)n1-c1ccc(Cl)cc1 [Compound 526, 4-(4-Chlorophenyl)-3-(2-(2,5-dichlorophenyl)imidazo[1,2-a]pyridin-3-yl)-1H-1,2,4-triazole-5(4H)-thione]
97.1% | COc1nnc(-c2c(-c3cc(Cl)ccc3Cl)nc3ccccn23)n1-c1ccc(Cl)cc1 [Compound 527, 3-(4-(4-Chlorophenyl)-5-methoxy-4H-1,2,4-triazol-3-yl)-2-(2,5-dichlorophenyl)imidazo[1,2-a]pyridine]
86.8% | CSc1nnc(-c2c(-c3cc(Cl)ccc3Cl)nc3ccccn23)n1-c1ccc(Cl)cc1 [Compound 528, 3-(4-(4-Chlorophenyl)-5-(methylthio)-4H-1,2,4-triazol-3-yl)-2-(2,5-dichlorophenyl)imidazo[1,2-a]pyridine]
99.6% | CCc1ccc(-n2cnnc2-c2c(-c3cc(Cl)ccc3Cl)nc3ccccn23)cc1 [Compound 529, 2-(2,5-Dichlorophenyl)-3-(4-(4-ethylphenyl)-4H-1,2,4-triazol-3-yl)imidazo[1,2-a]pyridine]
88.8% | Clc1ccc(Cl)c(-c2nc3ccccn3c2-c2nncn2-c2ccc(-c3ccccc3)cc2)c1 [Compound 531, 3-(4-([1,1′-Biphenyl]-4-yl)-4H-1,2,4-triazol-3-yl)-2-(2,5-dichlorophenyl)imidazo[1,2-a]pyridine]
96.8% | Fc1ccccc1-n1cnnc1-c1c(-c2cc(Cl)ccc2Cl)nc2ccccn12 [Compound 534, 2-(2,5-Dichlorophenyl)-3-(4-(2-fluorophenyl)-4H-1,2,4-triazol-3-yl)imidazo[1,2-a]pyridine]
100% | Cn1ccc2cc(-n3cnnc3-c3c(-c4cc(Cl)ccc4Cl)nc4ccccn34)ccc21 [Compound 536, 2-(2,5-Dichlorophenyl)-3-(4-(1-methyl-1H-indol-5-yl)-4H-1,2,4-triazol-3-yl)imidazo[1,2-a]pyridine]
93.9% | Clc1ccc(Cl)c(-c2nc3ccccn3c2-c2nncn2-c2ccc3ncccc3c2)c1 [Compound 541, 6-(3-(2-(2,5-Dichlorophenyl)imidazo[1,2-a]pyridin-3-yl)-4H-1,2,4-triazol-4-yl)quinoline]
